From US20220152101A1, “CELLULAR IMMUNOTHERAPY COMBINATION” (CARSGEN THERAPEUTICS CO., LTD., priority 2019, published 2022)

Test system: Panc02/Luc-GFP-Claudin 18.2 cells
Assay: In vivo inhibitory effect of Gemcitabine combined with CAR T cells on in situ mouse pancreatic cancer
Parameters: species or system C57BL/6 mice
Experimental: The pancreases of 6-week-old C57BL/6 mice are inoculated with 2×10^5 Panc02/Luc-GFP-Claudin 18.2 cells in situ, and is recorded as Day 0 in the tumor cell inoculation diary.
On the 6th day after tumor inoculation (i.e., Day 6), mouse T cells are taken and constructed according to Example 1 to construct the 8E5-2I-mBBZ CAR T cell line. At the same time, the mice are subjected to in vivo imaging, and the mice are randomly grouped according to the tumor burden of the mice. The main groups are:
Group 1: UTD group, that is, the group administrated only untransfected mouse T cell treatment;
Group 2: CART group, that is, the group administrated only 8E5-2I-mBBZ CAR T cell therapy;
Group 3: Gemcitabine group, that is, the group administrated only Gemcitabine; and
Group 4: Gemcitabine+CART group, that is, the group administrated 8E5-2I-mBBZ CAR T cells combined with Gemcitabine treatment.
On the 6th, 7th, and 8th day (i.e., Day 6, 7, and 8), mice in the Gemcitabine group and Gemcitabine+CART group are administrated 30 mg/kg Gemcitabine for treatment, intraperitoneal administration, once a day. […]

## Cl.Nc1ccn([C@@H]2O[C@H](CO)[C@@H](O)C2(F)F)c(=O)n1 [Gemcitabine, 2′-deoxy-2′, 2′-difluorocytidine hydrochloride]
Day 13, in vivo imaging, FIG. 2, Gemcitabine 30 mg/kg i.p. Day 6-8, 3×10^6 CAR-T cells tail vein Day 9
  tumor burdens compared to the UTD group: significantly decreased
FIG. 3, Gemcitabine+CART compared with the UTD group, P<0.05
  tumor growth (in vivo imaging data): continue to grow
